Assay [1] has as its target T1, GRP78 on endothelial cells (Homo sapiens, UniProt P11021).
T1 construct: endogenous in cells; host or cells: HUVEC / endothelial cells from umbilical cords, under normoxia or hypoxia
The assay can be described thus: FACS competition of peptides with GRP78 polyclonal antibody on endothelial cells under hypoxia. The format is binding. The note with it: hypoxic conditions; for inhibition of anti GRP78 binding to endothelial cells: ten micrograms of peptide. The method, then: Endothelial cells were cultured for 24 hours under hypoxic conditions in endothelial cell growth medium. Cells were removed by trypsin and incubated for 1 hour on ice with increasing concentrations of AdoPep1, Motif A and Motif C peptides. GRP78 polyclonal antibody (2 μg/100,000) was added to the cells for 2 hours on ice. Anti-goat FITC (Jackson ImmunoResearch) was added for 30 minutes on ice. IgG1-FITC was used as the isotype control. The samples were analyzed with a FACScan (Beckton Dickinson). […] FIG. 28d depicts the average percent binding of GRP78 to endothelial cells as a function of peptide amount as determined by 2 independent experiments.

Assay [2] concerns endothelial cells. Description: Tube formation of endothelial cells on Cultrex Basement Membrane Extract. The following applies: 10 ng/ml, 18 hours, starvation and normoxic conditions. It counts as cell-based, human. The method, then: FIG. 27 is a graph depicting induction of tube formation using AdoPep1 and Motif A (SEQ ID NO:7) but not the scrambled sROY peptide. Endothelial cells were incubated in media without supplements for 24 hours, and 50,000 cells were then transferred in 500 μl medium to 24-well plates precoated with 250 μl Cultrex Basement Membrane Extract (with reduced growth factors) (R&D Systems, Minneapolis, Minn., USA). AdoPep1, Motif A and scrambled sROY peptides were added at an optimal concentration of 10 ng/ml (based on preliminary findings), and the slides were examined by light microscopy after 18 hours incubation. The results represent average±SD of three experiments using 3 different cords. The length of the network of connected cells (tube formation) was measured in micrometers in 5 different areas of each well using Image-Pro Plus Image software (Media Cybernetics, Silver Spring, Md., USA).

Assay [3] relates to endothelial cells. The assay can be described thus: Hypoxia-induced apoptosis of endothelial cells (Annexin V FITC/PI FACS). It counts as cell-based, human. The following applies: for effect on hypoxia-induced apoptosis of endothelial cells / percent apoptosis (PI/Annexin V): 24 hours hypoxia; for effect on hypoxia-induced apoptosis of endothelial cells: peptides 10 ng/ml; for percent apoptosis (PI/Annexin V): FIGS. 24a-d, hypoxia alone 79.3%. The method, then:
FIG. 17 is a histogram depicting the effect of ADOPep1 on hypoxia-induced apoptosis of endothelial cells. Endothelial cells were exposed for 24 hours hypoxia in the presence of endothelial cell growth medium supplemented with 5% fetal calf serum (FCS), followed by incubation under hypoxia conditions with ADOPep1 (10 ng/ml) or anti-GRP78 antibody (100 ng/ml). Cells (100,000/tube) were incubated with Annexin-V FITC/PI for endothelial cell apoptosis determination. […] Similarly, anti-GRP78 antibody induced a reduction in apoptosis up to 32%.
FIGS. 24a-d are FACS analyses depicting hypoxia induced apoptosis. Endothelial cells were incubated for 24 hours under hypoxia conditions in the absence (FIG. 24a) or presence of 10 ng/ml of ADOPepe1 (FIG. 24b), peptide of Motif A (FIG. 24c) or peptide of motif C (FIG. 24d) and the level of apoptosis was determined using FACS analysis and the PI (shown on the Y axis)/Annexin V (shown on the X axis) markers.
FIG. 25 is a bar graph depicting the inhibition of hypoxia induced apoptosis by ADOPep 1, Motif A and Motif B. Endothelial cells were incubated for 24 hours under hypoxia conditions in the absence or presence of 10 ng/ml of ADOPepe1, Motif A, Motif B or motif C and the level of apoptosis was determined using FACS analysis and quantified as the percent of Annexin V and PI positive cells. The results represent average±standard deviation of 4 independent experiments.
FIGS. 33a-f are representative FACS analyses depicting a specific inhibition of hypoxia-induced apoptosis of endothelial cells by ADOPep1. Endothelial cells in Petri dishes were incubated for 24 hours with 5% FCS in supplement-free endothelial cell growth medium under normoxia (FIGS. 33a and d), exposed to 24 hours hypoxia (Figures c and f) or incubated under normoxia with 100 micromolar per 100,000 cells CoCl2 (FIGS. 33b and e), in the absence (FIGS. 33a-c) or presence (FIGS. 33d-f) of 10 ng/ml Adopep1 peptide (for 24 hours). Cells were trypsinized and immediately re-suspended in PBS with 5% FCS and 0.1% Na-azide. Samples containing 100,000 cells were tested for apoptosis using the Annexin-FITC (X axis) and propidium iodide (Y axis) kit (Bender Medsystems, Vienna, Austria), according to manufacturer's instructions. Results were analyzed by FACScan (Beckton Dickinson).
EC were incubated for 24 hours with 5% FCS in EC growth media in Petri dishes plates followed by 24 hours incubation under hypoxia conditions with ADOPep1 (10 ng/ml), anti GRP78 antibody (Santa Cruz Biotechnology, Calif., USA) (1 microgram/ml) or recombinant VEGF (10 ng/ml). The Annexin V FITC/PI detects the phosphatidylserin on the apoptotic cells using flow cytometry. Human Annexin V-FITC kit (Bender Medsystems, Vienna, Austria) was used for the measurement of EC apoptosis percentage following manufacturer's instructions. Samples were analyzed using a fluorescence activated cell sorter (FACScan Beckton Dickinson, Calif., USA).

Assay [4] has as its system endothelial cells (HUVEC). The assay can be described thus: Migration of endothelial cells under hypoxia (Chemicon QCM 96-well Migration Assay). The format is cell-based, human. The following applies: 5 hours hypoxia, 10 ng/ml. The method, then:
FIG. 6 is a graph depicting migration of endothelial cells under hypoxia conditions. Endothelial cells (25,000) were incubated in endothelial cells growth medium free supplements in the migration chamber. ADOPep1 (SEQ ID NO:2), 2 (SEQ ID NO:3) and 3 (SEQ ID NO:4) were added to the feeder tray of the migratory kit at 1, 10 and 100 ng/ml for 5 hours hypoxia. Results were determined by a fluorescence ELISA reader and expressed as increase in percentage migration in Relative fluorescence Units.
FIGS. 26a-b are graphs depicting induction of endothelial cell migration under hypoxia by the ADOPEP motifs. Endothelial cells were incubated for 5 hours under hypoxia conditions in the presence of increasing concentrations of ADOPep1 (red line), peptide motif A (dark blue line), peptide motif B (green line) or peptide motif C (light blue line) and the migration of endothelial cells was detected. FIG. 26a—experiment 1; FIG. 26b—experiment 2.
Endothelial cell migration was evaluated by the Chemicon QCM 96-well Migration Assay (Chemicon International, Calif., USA) according to manufacturer's instructions. This kit utilizes a membrane with an 8 μm pore size. Migratory cells on the bottom of the insert membrane are dissociated from the membrane when incubated with cell detachment buffer provided by the kit. […] For the migration assay, HUVEC from passage 3 were incubated in endothelial cell (EC) growth medium free of supplements. After trypsinization, 25,000 EC were incubated in the migration chamber. ADOPeps were added at concentrations of 1, 10 and 100 ng/ml in the feeder tray for chemoattractant migration assay. Time of incubation was 5 hours for endothelial cells under hypoxic conditions. Results were determined in a Fluorescent ELISA reader at 480/520 nm.

“Also recorded” adds a separate entry of the source.

T1 sequence (P11021 19-654): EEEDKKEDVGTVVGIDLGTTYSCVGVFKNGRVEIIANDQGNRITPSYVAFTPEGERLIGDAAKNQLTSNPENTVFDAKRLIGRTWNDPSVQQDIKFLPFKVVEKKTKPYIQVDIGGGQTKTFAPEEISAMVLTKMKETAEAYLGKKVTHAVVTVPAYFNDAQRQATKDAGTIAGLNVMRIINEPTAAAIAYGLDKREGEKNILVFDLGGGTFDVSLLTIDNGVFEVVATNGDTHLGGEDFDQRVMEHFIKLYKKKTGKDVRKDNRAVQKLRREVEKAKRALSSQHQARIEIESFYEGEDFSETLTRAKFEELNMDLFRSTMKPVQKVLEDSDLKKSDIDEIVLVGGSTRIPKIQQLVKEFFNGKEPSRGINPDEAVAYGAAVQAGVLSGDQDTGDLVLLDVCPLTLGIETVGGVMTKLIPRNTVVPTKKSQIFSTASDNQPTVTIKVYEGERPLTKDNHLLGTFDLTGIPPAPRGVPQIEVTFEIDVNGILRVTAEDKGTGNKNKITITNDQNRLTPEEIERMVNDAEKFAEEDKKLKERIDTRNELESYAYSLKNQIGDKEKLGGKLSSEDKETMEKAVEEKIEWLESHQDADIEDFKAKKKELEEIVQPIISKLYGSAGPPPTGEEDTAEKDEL

For “HWRRAHLLPRLP [ADOPep1, ADAM15 derived peptide, amino acids 286-297 of the metalloprotease domain]”, in assay [1], the “inhibition of anti GRP78 binding to endothelial cells (in words)” value was “inhibit the binding of GRP78 to endothelial cells” and the “inhibition of anti GRP78 binding to endothelial cells” value is “approximately 80%”. Moreover, in the assay on endothelial cells [2], the “tube formation (length of the network of connected cells)” value is recorded as “significantly increased the length of the network of connected cells”. Besides, the “effect on hypoxia-induced apoptosis of endothelial cells” value in the assay with endothelial cells [3] was “prevented apoptosis to levels which are similar to those seen under normoxic conditions; also recorded: capable of inhibiting the hypoxia induced apoptosis; also recorded: remarkable decrease in the stained cells; also recorded: significant inhibition of hypoxia induced apoptosis; also recorded: a significant fraction of hypoxia-induced apoptosis was inhibited”. Besides, the “more efficient in decreasing apoptosis as compared to the anti-GRP78 antibody” value in the assay on endothelial cells [3] (FIG. 17, hypoxia) amounted to 29%. For the same substance, in the assay with endothelial cells [3] (FIG. 17, hypoxia, ADOPep1 10 ng/ml, anti-GRP78 antibody 100 ng/ml), the “percent apoptosis of endothelial cells (Annexin-V/PI)” value was 25%. In the assay with endothelial cells [3] (FIG. 34, 24 hours hypoxia, 10 ng/ml), the “inhibition of hypoxia induced apoptosis” value was “approximately 40%”. Also, the “percent apoptosis (PI/Annexin V)” value with endothelial cells [3] (10 ng/ml) stood at 28.6%. In addition, the “migration of endothelial cells” value in assay [4] is given as “most significant increase in EC migration; also recorded: induced endothelial cell migration”. Also, the “migration of endothelial cells” value in assay [4] (listed as ADOPep 1) is reported as “induced increase in percent of migration”.
Regarding “HWRRP [Motif A, 5 amino acid motif peptide]”, in assay [1], the “inhibition of anti GRP78 binding to endothelial cells (in words)” value is on record as “inhibit the binding of GRP78 to endothelial cells” and the “inhibition of anti GRP78 binding to endothelial cells” value was about 60%. In the assay with endothelial cells [2], the “tube formation (length of the network of connected cells)” value is recorded as “significantly increased the length of the network of connected cells”. In addition, the “effect on hypoxia-induced apoptosis of endothelial cells” value in the assay with endothelial cells [3] is listed as “capable of inhibiting the hypoxia induced apoptosis; also recorded: significant inhibition of hypoxia induced apoptosis”. Besides, the “percent apoptosis (PI/Annexin V)” value in the assay with endothelial cells [3] (10 ng/ml) was 35.8%. Moreover, in assay [4], the “migration of endothelial cells” value was “induced endothelial cell migration”.

Source of the values: US8741843B2, “Compositions and methods for inducing angiogenesis” (priority 2006, dated 2014).
